The source of these data is patent US11505574B2, “Modulation of P53 for the treatment of cancer” (THE REGENTS OF THE UNIVERSITY OF CALIFORNIA, priority 2016, dated 2022).

Data set [1] deals with p53. Briefly: Western blot for p53 and downstream targets in MCF7 cells treated with peptides. The settings on record: MCF7 cells; 2.5 μM; 18 hours (FIG. 32C). Format: cell-based, human. For orientation: In western blotting, separated proteins are transferred to a membrane and probed.
In data set [2] the test system is p53. The experiment in a line: Western blot for p53 and downstream targets in RKO cells treated with peptides. The class given is cell-based, human.
Data set [3] deals with MCF7 cells. Briefly: MCF7 cell colony formation assay (peptides). The class given is cell-based, human. The settings on record: MCF7 cells; 5 μM; 6.25 ng/mL doxorubicin 48 hours (FIG. 34C). On the procedure: In order to test the effect of the RBM38 and eIF4E peptides on cancer cell colony formation, MCF7 cells were seeded in 6-well plates at a density of 1×10^3 cells per well. The following day, cells were treated with peptides. In order to form stable complexes with PEP1, 100 μl of serum-free DMEM was added to individual Eppendorf tubes. Control (SEQ ID NO:11), RBM38, and eIF4E peptides were added at a concentration of 375 nM and then 7.5 μg of PEP1 was added to each peptide (20:1). The complexes were incubated for 20 minutes at room temperature and then added dropwise to cells. Cell media was changed every three days until colonies were visible. The cells were fixed and then stained with crystal violet.
In order to test the effect of a combination treatment comprising peptides of the present invention and a chemotherapeutic agent on cancer cell colony formation, MCF7 cells were seeded in 6-well plates at a density of 1×10^3 cells per well. The following day, cells were treated with peptides. In order to form stable complexes with PEP1, 100 μL of serum-free DMEM was added to individual Eppendorf tubes. Control, RBM38, eIF4E, and peptide-8 peptides were added at a concentration of 375 nM and then 7.5 μg of PEP1 was added to each peptide (20:1). The complexes were incubated for 20 minutes at room temperature and then added dropwise to cells. 20 minutes after addition of peptide complexes, 3.125 ng/mL doxorubicin was added to the cells. Cell media was changed every three days until colonies were visible. The cells were fixed and then stained with crystal violet.
For the experiments shown in FIG. 34C, MCF7 cells were seeded on a 6-well plate at a seed density of 1×10^3 cells per well. The following day the cells were treated with 5 μM Pen-Ctrl or 5 μM Pen-Pep23. The following day, 6.25 ng/mL doxorubicin was added to the cells for 48 hours. Subsequently, the cell media was changed every 3 days until colonies were visible. The cells were fixed and stained with crystal violet.

The subject of data set [4] is RKO cells. The experiment in a line: RKO cell colony formation assay (peptides). The class given is cell-based, human. The settings on record: 5 μM, 3.125 ng/mL doxorubicin 48 hours (FIG. 34D). Here is the method: For the experiments shown in FIG. 34D, RKO cells were seeded on a 6-well plate at a seed density of 2×10^3 cells per well. The following day the cells were treated with 5 μM Pen-Ctrl, 5 μM Pen-Pep23, or 5 μM Pen-Pep8. The following day, 3.125 ng/mL doxorubicin was added to the cells for 48 hours. Subsequently, the cell media was changed every 3 days until colonies were visible. The cells were fixed and stained with crystal violet.

In data set [5] the test system is tumor cell colony formation. Briefly: Tumor cell colony formation assay, cell line not stated (FIGS. 13C, 20D). The class given is cell-based. The settings on record: with and without doxorubicin 6.25 ng/mL; versus Pen-Ctrl (FIG. 20D).
In data set [6] the test system is MIA-PaCa-2 pancreatic cancer cells. The experiment in a line: MIA-PaCa-2 cell colony formation assay (peptides). The class given is cell-based, human. The settings on record: miaPaCa2 cells (mutant p53); 10 μM for 20 minutes then 0.25 ng/mL doxorubicin 18 hours (FIG. 37D). The source says:
[…] […] After colonies formed they were fixed (i.e., using 7:1 MeOH:glacial acetic acid) and stained with crystal violet.

Data set [7] has as its system HaCaT cells. Briefly: HaCaT cell colony formation assay. The class given is cell-based. The settings on record: HaCaT cells (mutant p53); 10 μM for 20 minutes then 0.5 ng/mL doxorubicin 18 hours (FIG. 37D). Here is the method:
For the experiments shown in FIG. 37D, HaCaT and MiaPaCa2 cells were grown in 6-well plates at 500 cells per well. The following day, 10 μM Pen-Ctrl (SEQ ID NO:10), Pen-Pep23 (SEQ ID NO:9), or Pen-Pep8 (SEQ ID NO:50) were added to the cells for 20 minutes followed by treatment with 0.5 ng/mL doxorubicin (for HaCaT cells) or 0.25 ng/mL doxorubicin (for miaPaCa2 cells) for 18 hours, then the media was changed to fresh DMEM. After colonies formed they were fixed (i.e., using 7:1 MeOH:glacial acetic acid) and stained with crystal violet.

Data set [8] deals with p53. The experiment in a line: Western blot for p53 in MCF7 cells treated with oligonucleotides. The class given is cell-based, human. The conditions noted are these: MCF7 cells (FIG. 29A).
Data set [9] relates to mutant p53 (R248W). The experiment in a line: Western blot for mutant p53 in MIA-PaCa-2 cells treated with oligonucleotides. Format: cell-based. The settings on record: p53 R248W (FIGS. 29A, 29B). From the text: FIGS. 29A-29C show data illustrating the effects of oligonucleotides of the present invention with respect to wild type and mutant p53. […] Oligonucleotide sequences were as follows: M3, SEQ ID NO:14; 14A/G, SEQ ID NO:20; 14U/G, SEQ ID NO:49; 15A, SEQ ID NO:21; 6A/G, SEQ ID NO:45; 6U/G, SEQ ID NO:46; 10A/G, SEQ ID NO:47; 10 U/G, SEQ ID NO:48.
FIGS. 29A and 29B show the results of experiments exploring the effects of oligonucleotides of the present invention on wild type and mutant p53. Oligonucleotides M3, 14A/G, 15A, and 6U/G were used to treat MCF7 cells expressing wild type p53 and MIA-PaCa-2 cells expressing mutant p53 (R248W). […] The effect was limited to the 6U/G oligonucleotide. […] Oligonucleotide sequences were as follows: M3, SEQ ID NO:14; 14A/G, SEQ ID NO:20; 14U/G, SEQ ID NO:49; 15A, SEQ ID NO:21; 6A/G, SEQ ID NO:45; 6U/G, SEQ ID NO:46; 10A/G, SEQ ID NO:47; 10 U/G, SEQ ID NO:48.

Data set [10] deals with eIF4E (His-tagged) (Homo sapiens, UniProt P06730). The experiment in a line: Pulldown of His-tagged eIF4E by peptides bound to TentaGel resin. The class given is binding. The conditions noted are these: linear and cyclized Pep8 on TentaGel resin; 2 μg purified eIF4E overnight (FIG. 36A). Here is the method: The peptides bound to Tentagel™ resin were incubated with His-eIF4E overnight and then washed extensively before being eluted with SDS-PAGE lysis buffer followed by Western blot assay for His-eIF4E. Lane #1: peptide-8 (SEQ ID NO:1); Lane #2: Cyc-8 peptide (SEQ ID NO:5); Lane #3: kAmi-8 peptide (SEQ ID NO:8); Lane #4: Ami-8 peptide (SEQ ID NO:7).
For the experiments shown in FIG. 36A, linear and cyclized versions of Pep8 (i.e., peptides having the amino acid sequences set forth in SEQ ID NOS:1, 5, 7, and 8) were synthesized and bound to TentaGel resin. Resin was washed 3× with 1× lysis buffer, and then incubated with 1× lysis buffer+0.3% BSA for 1 hour while rotating in a cold room. Next, resin was incubated with 1× lysis buffer+0.3% BSA+2 μg purified eIF4E (His-tagged) overnight. Next, resin was washed with 1× lysis buffer+0.3% BSA 3 times, followed by washing with 1× lysis buffer with no Triton X-100 three times. Finally, elution was performed with 1×SDS-loading buffer (70 μl) to load all onto a 12% SDS-PAGE gel for Western blot for His-tagged eIF4E.

For data set [11], the system named is MCF7 tumor spheres. Briefly: MCF7 tumor sphere assay. The class given is cell-based, human. The settings on record: MCF7 cells; 150 nM with 3 μg PEP1; 3.125 ng/mL doxorubicin; 7 days (FIG. 36C). On the procedure: For the experiments shown in FIG. 34E, MCF7 cells were plated at a density of 20,000 cells per well using 2 mL Mammocult media in 6-well ultra-low adherent plates. The following day, cells were treated with Pen-Ctrl or Pen-Pep8 at a concentration of 5 μM. Peptides were added to each well for 20 minutes followed by 6.25 ng/mL doxorubicin. Cells were grown for 7 days and then the number of tumor spheres that were larger than 50 μm in diameter were counted (i.e., 20 10× photos were randomly taken and tumor spheres counted from the digital photos). For the graph shown in FIG. 34F, statistical analysis was performed using the student's t-test (n=3; *p≤0.05).
For the experiments shown in FIG. 36C, MCF7 cells were plated at a density of 20,000 cells per well using 2 mL Mammocult media in 6-well ultra-low adherent plates. The following day, cells were treated with 150 nM Cyc-Ctrl or Cyc-Pep8 (SEQ ID NO:5). 150 nM Cyc-Ctr/Pep8 was incubated in 100 μL serum-free DMEM with 3 μg PEP1 for 25 minutes before being added to the cells. After 20 minutes, 3.125 ng/mL doxorubicin was added to the cells for 7 days. Cells were grown for 7 days and then tumor spheres were counted that were larger than 50 μm in diameter (i.e., 20 10× photos were randomly taken and tumor spheres were counted from the digital photos).

Bridges are numbered along the chain shown (N, C = ends). Where no end group is shown, it is not given here. [ ]: non-standard residue; d: D form.

Chain of eIF4E (His-tagged) (P06730 whole entry): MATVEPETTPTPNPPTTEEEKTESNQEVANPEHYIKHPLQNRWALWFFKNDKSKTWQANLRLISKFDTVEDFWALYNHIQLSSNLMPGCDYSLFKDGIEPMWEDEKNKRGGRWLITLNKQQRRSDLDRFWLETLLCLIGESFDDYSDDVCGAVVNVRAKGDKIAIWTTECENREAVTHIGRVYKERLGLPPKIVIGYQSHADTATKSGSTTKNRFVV

For the substance “RQIKIWFQNRRMKWKKIGYQSHADTATKSGSTTKNRFVV [Pen-eIF4E, Penetratin fused to eIF4E peptide]”, the “p53 expression (Western blot)” value in [1] is given as “induced p53 expression”; in [2] (RKO cells, 2.5 μM, 18 hours (FIG. 32B)) it was “induced p53 expression”. Besides, in data set [2] (RKO cells, 1.5 μM for 20 minutes then 0.125 ng/mL etoposide 18 hours (FIG. 34I)), the “sensitization to low-dose etoposide (p53 Western blot)” value is “also to low-dose etoposide”. The “sensitization to low-dose doxorubicin (p53 Western blot)” value in [2] (RKO cells, 1.5 μM for 20 minutes then 6.25 ng/mL doxorubicin 18 hours (FIG. 34I)) is “sensitized to low-dose doxorubicin”. Further, the “protein expression of p53 and downstream target MDM2 (Western blot)” value in data set [2] (RKO cells, 5 μM Penetratin fusion, 18 hours (FIG. 1F)) was “enhanced the protein expression of p53 and the downstream target MDM2”. The “colony formation, sensitization to low-dose doxorubicin” value in [3] was “sensitized MCF7 and RKO cells to low-dose doxorubicin”; in data set [4], “sensitized MCF7 and RKO cells to low-dose doxorubicin”; in data set [6] it was “sensitized to low-dose doxorubicin”; in [7], “sensitized to low-dose doxorubicin”. Besides, in [5], the “cell colony formation, combination with doxorubicin” value is “striking synergistic effect”.
With “UUUGUUUUUUGUUU (listed as RNA, chemistry not given here) [6U/G]”, in data set [8], the “p53 expression in cells expressing wild type p53” value is “unregulated p53 expression”. The “p53 expression in cells expressing mutant p53” value in data set [9] is recorded as “downregulated expression”.
As for “cYPYAASPAc ([dC]YPYAASPA[dC]; disulfide 1-10 (inferred)) [Cyc-8, disulfide cyclic 10-mer of peptide-8]”, the “p53 expression in combination with low-dose doxorubicin, cyclized versus linear peptide” value in [2] (6.25 ng/mL doxorubicin (FIG. 23E)) is “stronger effect in combination with low-dose doxorubicin”. Moreover, in data set [2] (25 nM, 50 nM, 150 nM, 375 nM peptide (FIGS. 23A-23D)), the “upregulation of p53 (Western blot), cyclized versus linear peptide” value is reported as “stronger upregulation of p53”. For the same substance, in data set [2] (RKO cells, 25 nM, 50 nM, 150 nM or 375 nM with PEP1 at 20:1 molar ratio, 18 hours (FIG. 36B)), the “p53 expression, potency compared to other forms of Pep8 (Western blot)” value was “increased potency compared to other forms of Pep8, as shown by an increase of p53 with the addition of only 25 nM of the peptide”. Moreover, the “protein expression of p53 and downstream target MDM2 (Western blot)” value in [2] (RKO cells, 375 nM peptide with 7.5 μg PEP1 (20:1), 18 hours (FIG. 1E)) was “enhanced the protein expression of p53 and the downstream target MDM2”; in data set [2] (RKO cells, 375 nM peptide with 7.5 μg PEP1 (20:1), 18 hours (FIG. 1E), listed as cyclized version of peptide-8) it was “able to increase p53 protein expression”. Moreover, in [10], the “binding of His-tagged eIF4E (pulldown, Western blot)” value is on record as “bound the most eIF4E”. In addition, in data set [11], the “tumor spheres larger than 50 μm in diameter, sensitization to low-dose doxorubicin” value is listed as “sensitized MCF7 tumor spheres to low-dose doxorubicin treatment”.
